Among the data in patent US11826351B2, “Compounds useful as kinase inhibitors” (Loxo Oncology, Inc., priority 2015, dated 2023) are IC50 values, retold here.

Read-outs that look alike come from different tables or passages of the source. Some results are limits rather than exact numbers.

Assay [1] has as its target T1, Recombinant BTK^WT kinase (Homo sapiens, UniProt Q06187).
T1 construct: purchased Invitrogen
Briefly: BTK WT binding affinity (LanthaScreen TR-FRET). The conditions noted are these: Kinase Tracer 236, 5 h incubation. Summed up:
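Tracer-displacement TR-FRET: 2.5 nM recombinant BTK^WT, 2 nM Eu anti-His antibody and 15 nM Kinase Tracer 236 incubated with varying inhibitor concentrations for 5 h in Kinase Buffer A. Signal read at 340 nm excitation, 615/665 nm emission; IC50 from variable-slope log[inhibitor]–response fit.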
Background: TR-FRET usually uses a lanthanide donor and a delayed reading to cut background.

In assay [2] the target is T2, Recombinant BTK^C481S kinase (Homo sapiens, UniProt Q06187, C481S).
T2 construct: purchased SignalChem
T2 sequence (Q06187 whole entry C481S): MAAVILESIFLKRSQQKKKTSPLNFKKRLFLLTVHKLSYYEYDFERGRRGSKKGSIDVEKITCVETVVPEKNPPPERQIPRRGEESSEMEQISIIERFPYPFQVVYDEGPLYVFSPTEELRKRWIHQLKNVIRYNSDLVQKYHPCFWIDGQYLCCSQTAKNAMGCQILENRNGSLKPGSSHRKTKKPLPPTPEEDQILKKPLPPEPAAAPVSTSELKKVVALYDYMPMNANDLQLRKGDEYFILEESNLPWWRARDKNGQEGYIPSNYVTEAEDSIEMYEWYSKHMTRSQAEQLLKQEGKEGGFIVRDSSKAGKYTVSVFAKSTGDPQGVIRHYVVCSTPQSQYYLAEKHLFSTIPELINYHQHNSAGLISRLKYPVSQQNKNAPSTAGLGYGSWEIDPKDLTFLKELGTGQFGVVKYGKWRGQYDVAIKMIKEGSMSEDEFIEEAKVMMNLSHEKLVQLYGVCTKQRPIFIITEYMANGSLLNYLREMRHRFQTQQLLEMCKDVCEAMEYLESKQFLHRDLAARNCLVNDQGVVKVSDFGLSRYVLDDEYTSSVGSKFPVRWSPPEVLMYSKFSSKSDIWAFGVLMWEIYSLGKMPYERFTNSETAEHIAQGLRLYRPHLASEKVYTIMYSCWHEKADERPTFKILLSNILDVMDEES
Briefly: BTK C481S binding affinity (LanthaScreen TR-FRET). The conditions noted are these: Kinase Tracer 236, 5 h incubation. The procedure, abridged:
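BTK C481S tracer-displacement TR-FRET: 5 nM His-tagged kinase, 2 nM Eu anti-His antibody and 30 nM Kinase Tracer 236 incubated with titrated inhibitor for 5 h in Kinase Buffer A. Read at 340 nm excitation, 615/665 nm emission; IC50 from variable-slope log[inhibitor]–response fit.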

For another assay, the target named is T3, Recombinant EGFR (Homo sapiens, UniProt P00533).
T3 construct: purchased Invitrogen
T3 sequence (P00533 25-1210): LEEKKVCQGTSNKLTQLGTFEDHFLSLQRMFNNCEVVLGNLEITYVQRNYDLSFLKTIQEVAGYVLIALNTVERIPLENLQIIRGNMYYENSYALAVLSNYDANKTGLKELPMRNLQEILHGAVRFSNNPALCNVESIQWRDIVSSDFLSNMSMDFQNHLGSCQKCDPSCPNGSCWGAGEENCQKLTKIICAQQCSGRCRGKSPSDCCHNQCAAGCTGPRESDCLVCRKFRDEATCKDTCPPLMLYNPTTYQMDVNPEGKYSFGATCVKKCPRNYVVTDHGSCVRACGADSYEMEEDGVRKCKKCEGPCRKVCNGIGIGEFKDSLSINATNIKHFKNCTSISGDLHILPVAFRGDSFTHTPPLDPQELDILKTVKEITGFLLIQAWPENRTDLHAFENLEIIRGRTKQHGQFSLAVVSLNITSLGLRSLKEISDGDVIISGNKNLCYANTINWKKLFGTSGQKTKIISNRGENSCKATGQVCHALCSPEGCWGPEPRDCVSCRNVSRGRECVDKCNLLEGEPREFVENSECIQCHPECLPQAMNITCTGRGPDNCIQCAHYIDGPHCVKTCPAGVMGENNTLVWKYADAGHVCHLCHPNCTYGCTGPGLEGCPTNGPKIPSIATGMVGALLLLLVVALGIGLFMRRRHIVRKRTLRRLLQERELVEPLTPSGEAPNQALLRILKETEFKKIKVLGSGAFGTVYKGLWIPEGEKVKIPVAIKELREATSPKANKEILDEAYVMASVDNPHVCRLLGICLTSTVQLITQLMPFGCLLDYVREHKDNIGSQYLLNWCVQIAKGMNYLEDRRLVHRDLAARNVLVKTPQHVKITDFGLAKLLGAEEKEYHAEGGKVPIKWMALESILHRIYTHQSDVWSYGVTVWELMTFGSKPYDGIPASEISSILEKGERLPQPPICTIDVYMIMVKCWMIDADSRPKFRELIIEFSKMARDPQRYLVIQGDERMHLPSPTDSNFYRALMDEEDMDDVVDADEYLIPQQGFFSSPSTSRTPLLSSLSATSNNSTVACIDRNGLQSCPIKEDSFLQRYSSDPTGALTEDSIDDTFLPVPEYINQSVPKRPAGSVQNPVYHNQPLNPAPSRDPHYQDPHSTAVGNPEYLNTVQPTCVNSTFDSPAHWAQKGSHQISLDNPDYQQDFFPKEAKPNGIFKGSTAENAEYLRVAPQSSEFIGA
Nature of the assay: EGFR binding affinity (LanthaScreen TR-FRET). The conditions noted are these: Kinase Tracer 199, 5 h incubation. Summed up:
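TR-FRET binding (LanthaScreen) with recombinant EGFR; signal measured across a compound concentration range. IC50 obtained by fitting RFU against log[inhibitor] to a variable-slope model.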

For assay [3], the system named is OCI-Ly10 human DLBCL cells. Briefly: OCI-Ly10 anti-proliferative activity (Resazurin). The class given is cell-based. The conditions noted are these: OCI-Ly10 cells, 72 h compound treatment, Resazurin, read-out: Proliferation Assay OCI-Ly10-20% FBS. The procedure, abridged:
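OCI-Ly10 human DLBCL cells, whose growth depends on NFκB signalling, were seeded at 7.5×10^3 cells per well in 96-well plates with a range of compound concentrations and kept at 37° C for 72 h. Resazurin was then added, and after 5 h fluorescence was read at 590 nm.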
(Resazurin is reduced to fluorescent resorufin, in cell work by metabolically active cells.)

T1 sequence (Q06187 whole entry): as the sequence (Q06187 whole entry C481S) above, with S481C counted along it

With `COc1ccccc1C(=O)NCc1ccc(-c2nn(C3CCCC3)c(C)c2C(N)=O)cc1` [Example 24, 1-Cyclopentyl-3-[4-[[(2-methoxybenzoyl)amino]methyl]phenyl]-5-methyl-pyrazole-4-carboxamide], the IC50 in assay [1] is 10 to 100 nM; in assay [2], 10 to 100 nM; on Recombinant EGFR, 1000 to 10000 nM; in assay [3] (Homo sapiens, OCI-Ly10, 72 h), 100 to 1000 nM.

As to `COc1ccccc1C(=O)NCc1ccc(-c2nn(C3CCCC3)c(N)c2C(N)=O)c(C)c1` [Example 101, 5-amino-1-cyclopentyl-3-[4-[[(2-methoxybenzoyl)amino]methyl]-2-methyl-phenyl]pyrazole-4-carboxamide], the IC50 is 10 to 100 nM in assay [1]; under 10 nM in assay [2]; over 10000 nM at Recombinant EGFR; 100 to 1000 nM in assay [3] (Homo sapiens, OCI-Ly10, 72 h).

As to `COc1ccccc1C(=O)NCc1ccc(-c2nn(C3CCC(O)CC3)c(N)c2C(N)=O)cc1` (single isomer, unassigned) [Example 34a, 5-Amino-1-(4-hydroxycyclohexyl)-3-[4-[[(2-methoxybenzoyl)amino]methyl]phenyl]pyrazole-4-carboxamide], the IC50 in assay [1] is under 10 nM; in assay [2], under 10 nM; at Recombinant EGFR, 100 to 1000 nM; in assay [3], 10 to 100 nM.

As for `COc1ccccc1C(=O)NCc1ccc(-c2nn(-c3ccc(C)cc3)c(N)c2C(N)=O)cc1` [Example 44, 5-amino-3-[4-[[(2-methoxybenzoyl)amino]methyl]phenyl]-1-(p-tolyl)pyrazole-4-carboxamide], the IC50 in assay [1] is under 10 nM; in assay [2] it was under 10 nM; at Recombinant EGFR, 100 to 1000 nM; in assay [3] (Homo sapiens, OCI-Ly10, 72 h), 10 to 100 nM.

With `COc1ccc(F)cc1C(=O)NCc1ccc(-c2nn(C3CCCC3)c(N)c2C(N)=O)c(F)c1F` [Example 154, 5-amino-1-cyclopentyl-3-[2,3-difluoro-4-[[(5-fluoro-2-methoxy-benzoyl)amino]methyl]phenyl]pyrazole-4-carboxamide], the IC50 is under 10 nM in assay [1]; under 10 nM in assay [2]; over 10000 nM at Recombinant EGFR; 10 to 100 nM in assay [3] (Homo sapiens, OCI-Ly10, 72 h).

For the compound `COc1ccccc1C(=O)NCc1ccc(-c2nn(-c3ccccc3C)c(N)c2C(N)=O)cc1` [Example 47, 5-amino-3-[4-[[(2-methoxybenzoyl)amino]methyl]phenyl]-1-(o-tolyl)pyrazole-4-carboxamide], the IC50 in assay [1] is 10 to 100 nM; in assay [2], under 10 nM; at Recombinant EGFR, 1000 to 10000 nM; in assay [3] (Homo sapiens, OCI-Ly10, 72 h), 100 to 1000 nM.

Consider `COc1ccc(F)cc1C(=O)NCc1cc(F)c(-c2nn(C3CCCOC3)c(N)c2C(N)=O)cc1F` (centres unmarked) [Example 149, 5-amino-3-[2,5-difluoro-4-[[(5-fluoro-2-methoxy-benzoyl)amino]methyl]phenyl]-1-tetrahydropyran-3-yl-pyrazole-4-carboxamide], for which the IC50 in assay [1] is under 10 nM; in assay [2], under 10 nM; on Recombinant EGFR, over 10000 nM; in assay [3] (Homo sapiens, OCI-Ly10, 72 h), 10 to 100 nM.

Consider `COc1ccccc1C(=O)NCc1ccc(-c2nn(C3CCOC3C)c(N)c2C(N)=O)cc1` (single isomer, unassigned) [Example 77, 5-amino-3-[4-[[(2-methoxybenzoyl)amino]methyl]phenyl]-1-[2-methyltetrahydrofuran-3-yl]pyrazole-4-carboxamide], for which the IC50 in assay [1] was under 10 nM; in assay [2], under 10 nM; on Recombinant EGFR, 100 to 1000 nM; in assay [3], 10 to 100 nM.

In the case of `COc1ccc(F)cc1C(=O)NCc1ccc(-c2nn(C3CCCC3)c(N)c2C(N)=O)cc1` [Example 88, 5-amino-1-cyclopentyl-3-[4-[[(5-fluoro-2-methoxy-benzoyl)amino]methyl]phenyl]pyrazole-4-carboxamide], the IC50 was under 10 nM in assay [1]; under 10 nM in assay [2]; 100 to 1000 nM on Recombinant EGFR; under 10 nM in assay [3] (Homo sapiens, OCI-Ly10, 72 h).

Take `COc1ccc(F)cc1C(=O)NCc1cc(F)c(-c2nn(C3CCOC3)c(N)c2C(N)=O)cc1F` (centres unmarked) [Example 153, 5-amino-3-[2,5-difluoro-4-[[(5-fluoro-2-methoxy-benzoyl)amino]methyl]phenyl]-1-tetrahydrofuran-3-yl-pyrazole-4-carboxamide]: the IC50 in assay [1] is 10 to 100 nM; in assay [2], under 10 nM; at Recombinant EGFR it was over 10000 nM; in assay [3] (Homo sapiens, OCI-Ly10, 72 h) it was 100 to 1000 nM.

Consider `COc1ccc(F)cc1C(=O)NCc1ccc(-c2nn(C(C(C)C)C(F)(F)F)c(N)c2C(N)=O)cc1` (centres unmarked) [Example 180, 5-amino-3-[4-[[(5-fluoro-2-methoxy-benzoyl)amino]methyl]phenyl]-1-[2-methyl-1-(trifluoromethyl)propyl]pyrazole-4-carboxamide], for which the IC50 was under 10 nM in assay [1]; under 10 nM in assay [2]; 1000 to 10000 nM on Recombinant EGFR; 10 to 100 nM in assay [3] (Homo sapiens, OCI-Ly10, 72 h).

For the compound `COc1ccccc1C(=O)NCc1ccc(-c2nn(CCO)c(N)c2C(N)=O)cc1` [Example 31, 5-Amino-1-(2-hydroxyethyl)-3-[4-[[(2-methoxybenzoyl)amino]methyl]phenyl]pyrazole-4-carboxamide], the IC50 in assay [1] is 10 to 100 nM; in assay [2], 10 to 100 nM; at Recombinant EGFR, over 10000 nM; in assay [3] (Homo sapiens, OCI-Ly10, 72 h), 1000 to 10000 nM.

`COc1ccc(F)cc1C(=O)NCc1ccc(-c2nn(C3CCOC3)c(N)c2C(N)=O)c(F)c1` (centres unmarked) [Example 105, 5-amino-3-[2-fluoro-4-[[(5-fluoro-2-methoxy-benzoyl)amino]methyl]phenyl]-1-tetrahydrofuran-3-yl-pyrazole-4-carboxamide]: the IC50 in assay [1] is 10 to 100 nM; in assay [2] it was under 10 nM; on Recombinant EGFR it was 1000 to 10000 nM; in assay [3] (Homo sapiens, OCI-Ly10, 72 h), 100 to 1000 nM.

Consider `COc1ccccc1C(=O)NCc1ccc(-c2nn(C3CCOCC3)c(N)c2C(N)=O)c(F)c1` [Example 99, 5-amino-3-[2-fluoro-4-[[(2-methoxybenzoyl)amino]methyl]phenyl]-1-tetrahydropyran-4-yl-pyrazole-4-carboxamide], for which the IC50 is 10 to 100 nM in assay [1]; under 10 nM in assay [2]; over 10000 nM on Recombinant EGFR; 100 to 1000 nM in assay [3] (Homo sapiens, OCI-Ly10, 72 h).

`COc1ccc(F)cc1C(=O)NCc1ccc(-c2nn(C3CCOCC3)c(N)c2C(N)=O)c(F)c1F` [Example 142, 5-amino-3-[2,3-difluoro-4-[[(5-fluoro-2-methoxy-benzoyl)amino]methyl]phenyl]-1-tetrahydropyran-4-yl-pyrazole-4-carboxamide]: the IC50 in assay [1] was under 10 nM; in assay [2] it was under 10 nM; at Recombinant EGFR, 1000 to 10000 nM; in assay [3] (Homo sapiens, OCI-Ly10, 72 h) it was 100 to 1000 nM.

In the case of `COc1ccc(F)cc1C(=O)NCc1ccc(-c2nn([C@@H]3CCCOC3)c(N)c2C(N)=O)cc1` [Example 183, 5-amino-3-[4-[[(5-fluoro-2-methoxy-benzoyl)amino]methyl]phenyl]-1-[(3R)-tetrahydropyran-3-yl]pyrazole-4-carboxamide], the IC50 is under 10 nM in assay [1]; under 10 nM in assay [2]; 1000 to 10000 nM on Recombinant EGFR; 100 to 1000 nM in assay [3] (Homo sapiens, OCI-Ly10, 72 h).

With `COc1ccccc1C(=O)NCc1ccc(-c2nn(C3CCOCC3C)c(N)c2C(N)=O)cc1` (mixture of isomers) [Example 86, 5-amino-3-[4-[[(2-methoxybenzoyl)amino]methyl]phenyl]-1-(3-methyltetrahydropyran-4-yl)pyrazole-4-carboxamide], the IC50 in assay [1] is under 10 nM; in assay [2], under 10 nM; at Recombinant EGFR, 100 to 1000 nM; in assay [3] (Homo sapiens, OCI-Ly10, 72 h), 100 to 1000 nM.
